Some test systems named below: SNB-19 CNS; SF-268 CNS; U251 CNS; LOX IMVI melanoma; NCI-H522 lung; NCI-H23 lung; NCI/ADR-RES ovarian; HT29 colon; T-47D breast; SK-OV-3 ovarian.
Common to all, as to experiment: NCI-60 cell line screen, 48 h

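Five concentrations, 48 hours, 96-well plates. GI50 is the concentration that inhibits growth by half. At the TGI there is no net growth.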

With `C[C@H](CCC(=O)O)[C@H]1CC[C@H]2[C@@H]3[C@H](O)[C@H](O)[C@@H]4C[C@H](O)CC[C@]4(C)[C@H]3CC[C@]12C`, the TGI in the assay on SNB-19 CNS, with SF-268 CNS, in the assay with U251 CNS, in the assay on LOX IMVI melanoma, with NCI-H522 lung and in the assay with NCI-H23 lung was above 100 µM each time. The TGI with NCI/ADR-RES ovarian, in the assay on HT29 colon and in the assay on T-47D breast was above 100 µM each time.

In the case of `C[C@H](CCC(=O)O)[C@H]1CC[C@H]2[C@@H]3[C@@H](O)C[C@@H]4C[C@H](O)CC[C@]4(C)[C@H]3C[C@H](O)[C@]12C`, the TGI with SNB-19 CNS, in the assay with SF-268 CNS, in the assay on U251 CNS, with LOX IMVI melanoma, in the assay on NCI-H522 lung and in the assay on NCI-H23 lung was above 100 µM in each case. The TGI in the assay with NCI/ADR-RES ovarian, in the assay on HT29 colon and in the assay with T-47D breast was above 100 µM throughout.

As for `C=CC(=C)CCC(Br)C(C)(C)Br` (stereo unspecified), the TGI with SNB-19 CNS is above 100 µM; with SF-268 CNS it was above 100 µM; in the assay on U251 CNS, above 100 µM; in the assay with NCI-H522 lung, 30.6 µM; in the assay on NCI-H23 lung, above 100 µM; in the assay on SK-OV-3 ovarian, above 100 µM. Moreover, the TGI in the assay with NCI/ADR-RES ovarian, in the assay with HT29 colon and with T-47D breast was above 100 µM throughout.

`CCOP(=O)(OCC)/C(=C\n1ccc(=O)[nH]c1=S)C(=O)OC`: the TGI in the assay with SF-268 CNS, in the assay on U251 CNS, with LOX IMVI melanoma, with NCI-H522 lung, in the assay on NCI-H23 lung and in the assay on SK-OV-3 ovarian was above 100 µM each time. For the same compound, the TGI with NCI/ADR-RES ovarian, in the assay on HT29 colon and with T-47D breast was above 100 µM in each case.

As to `O=C(N/N=C\c1ccc(N(CCCl)CCCl)cc1)c1cccnc1`, the GI50 is 45 µM with SNB-19 CNS; 27 µM with SF-268 CNS; above 100 µM in the assay on U251 CNS; 21.3 µM in the assay on LOX IMVI melanoma; 29 µM in the assay on NCI-H522 lung; 15.8 µM in the assay on NCI-H23 lung. Moreover, the GI50 in the assay on NCI/ADR-RES ovarian is 28.3 µM; in the assay on HT29 colon, above 100 µM; in the assay with T-47D breast it was 26.5 µM. The TGI in the assay on SNB-19 CNS, with SF-268 CNS, in the assay with U251 CNS, in the assay on LOX IMVI melanoma, in the assay with NCI-H522 lung and with NCI-H23 lung was above 100 µM throughout. Besides, the TGI in the assay with NCI/ADR-RES ovarian, with HT29 colon and in the assay with T-47D breast was above 100 µM each time.

For the compound `Cc1cn(CC2(CO)CCC2)c(=O)[nH]c1=O`, the TGI in the assay with U251 CNS, in the assay on LOX IMVI melanoma, in the assay with NCI-H522 lung, in the assay with NCI-H23 lung, with SK-OV-3 ovarian and in the assay on NCI/ADR-RES ovarian was above 100 µM throughout. Moreover, the TGI in the assay with HT29 colon and in the assay with T-47D breast was above 100 µM throughout.

`O=C(O)CN1CCN2CCCCCCCCN(CC1)CCN(CC(=O)O)CC2`: the TGI in the assay with SNB-19 CNS, with U251 CNS, in the assay with LOX IMVI melanoma, in the assay on NCI-H522 lung, in the assay on SK-OV-3 ovarian and in the assay with NCI/ADR-RES ovarian was above 100 µM throughout. The TGI in the assay with HT29 colon and in the assay on T-47D breast was above 100 µM throughout.

For the compound `CC1CN=C(N(C(=O)Nc2ccc(Cl)cc2)c2cccc(Cl)c2)S1` (stereo unspecified), the TGI with SNB-19 CNS, in the assay with SF-268 CNS, in the assay on U251 CNS, in the assay with LOX IMVI melanoma, with NCI-H23 lung and in the assay on SK-OV-3 ovarian was above 100 µM each time. Further, the TGI with NCI/ADR-RES ovarian, in the assay on HT29 colon and with T-47D breast was above 100 µM throughout.

On to `COc1cc(/C=C2\N=C(c3ccccc3)N(c3nc4ccccc4s3)C2=O)cc(OC)c1OC`, for which the TGI with SNB-19 CNS is above 100 µM; with SF-268 CNS, above 100 µM; in the assay with U251 CNS, above 100 µM; with LOX IMVI melanoma, above 100 µM; with NCI-H522 lung, 35.8 µM; in the assay on NCI-H23 lung, above 100 µM. Besides, the results for the TGI in the assay with NCI/ADR-RES ovarian, with HT29 colon and in the assay on T-47D breast were 62 µM, above 100 µM and above 100 µM, respectively.

Consider `Cn1c2ccccc2c2c3c(c4c5ccccc5n(C)c4c21)C(=O)N(Cc1ccccc1)C3=O`, for which the TGI with SNB-19 CNS, in the assay with U251 CNS, in the assay on LOX IMVI melanoma, in the assay with NCI-H522 lung, in the assay on NCI-H23 lung and in the assay on SK-OV-3 ovarian was above 100 µM in each case. The TGI with NCI/ADR-RES ovarian, in the assay on HT29 colon and in the assay with T-47D breast was above 100 µM each time.

`COc1ccc(/C(=N/OCCCC(=O)O)c2cccs2)cc1`: the TGI with SNB-19 CNS, in the assay with SF-268 CNS, in the assay on U251 CNS, in the assay on LOX IMVI melanoma, in the assay on NCI-H23 lung and in the assay on SK-OV-3 ovarian was above 100 µM in each case. Besides, the TGI in the assay with NCI/ADR-RES ovarian, in the assay with HT29 colon and in the assay with T-47D breast was above 100 µM in each case.
